Measured values: patent publication US20060270694A1, “JAK kinase inhibitors and their uses” (Rigel Pharmaceuticals, Inc., priority 2005, published 2006)

System: JAK kinase (JAK1 and JAK3)
Experiment: IL-4 activation assay: CD23 upregulation in IL-4 stimulated Ramos B-cells, FACS
Type: cell-based, human
Protocol: The selectivity of the compounds illustrated in TABLES 1 and 2 for JAK kinases as compared to Syk kinase was confirmed in cellular assays designed to test for JAK and Syk inhibition. Briefly, JAK inhibition was tested in human Ramos B-cells activated with IL-4. Twenty to 24 hours post stimulation, the cells are stained for upregulation of CD23 and analyzed by FACS. Stimulation of the B-cells with IL-4 leads to the activation of the JAK/STAT pathway through phosphorylation of the JAK kinase JAK1 and JAK3, which in turn phosphorylate and activate transcription of factor […].
For the assay, human Ramos B-cells (ATCC, Catalog No. CRL-1596) are cultured in RPMI 1640 medium (Cellgro, Catalog No. 10-040-CM) containing 10% fetal bovine serum (JRH, Catalog No. 12106-500M) according to the propagation protocol supplied with the cells, and maintained at a density of approximately 3.5×10^5 cells/ml. The day before the assay, the cells are diluted to 3.5×10^5 cells/ml to insure they are in the logorithmic growth phase. The cells are spun down, and suspended in RPMI 1640 medium containing 5% fetal bovine serum to a density of 3.5×10^4 cells/ml and aliquots dispensed into a 96-well tissue culture plate. Cells are incubated with test compound (dissolved in DMSO) or DMSO (control) for 1 hr at 37° C. and then stimulated with IL-4 (Pepotech, Catalog No. 200-04) for 20-24 hours (final concentration is 50 Units/ml). Cells are then spun down, stained with anti-CD23-PE antibody (BD Pharmigen, Catalog No.555711) and analyzed by FACS.

[1] = TABLE 1, IC50 CHMC degranulation / IC50 IL-4 Ramos CD23, minimum ratio, calculated using Syk IC50 of 50 μM (upper limit of assay)
[2] = TABLE 2, IC50 CHMC degranulation (tryptase) / IC50 IL-4 Ramos CD23

SMILES	IC50 Ratio (Syk/JAK) [1]	IC50 Ratio (Syk/JAK) [2]
CN1CCN(c2ccc(Nc3ncc(F)c(NC4CC(C)(C)N(C)C(C)(C)C4)n3)cc2Cl)CC1 [Cmpd 1]	207	–
Cc1cc(Nc2ncc(F)c(NC3CCCC3C(N)=O)n2)ccc1N1CCN(C)CC1 (stereo not shown) [Cmpd 2]	155	–
Cc1ccc(Nc2ccnc(Nc3ccc(C)c([N+](=O)[O-])c3)n2)cc1[N+](=O)[O-] [Cmpd 3]	147	–
Cc1noc(COc2ccc(Nc3nc(Nc4cc(Cl)c(O)c(Cl)c4)ncc3F)cc2)n1 [Cmpd 4]	145	–
COC(=O)c1cc(Nc2ncc(F)c(Nc3ccc4c(c3)OCCO4)n2)cc(-c2ncco2)c1 [Cmpd 5]	105	–
NC(=O)c1ccc(Nc2ncc(F)c(NC3CCCC3)n2)cc1 [Cmpd 6]	70	–
CNC(=O)n1ccc2ccc(Nc3nc(Nc4cc(C)cc(C)c4)ncc3F)cc21 [Cmpd 7]	57	–
CNC(=O)COc1cccc(Nc2ncc(F)c(Nc3ccc(OC)c(CN(C)C)c3)n2)c1 [Cmpd 8]	51	–
CCNC(=O)Nc1ccc(Nc2ncc(F)c(Nc3ccc(NC(=O)NCC)cc3)n2)cc1 [Cmpd 9]	47	–
CCOC(=O)c1cnc(Nc2ccc3[nH]ncc3c2)nc1Nc1ccc2[nH]ncc2c1 [Cmpd 10]	43	–
CC(C)Nc1nc(Nc2cccc(N3CCN(C)CC3)c2)ncc1F [Cmpd 11]	38	–
Oc1cccc(Nc2ncc(F)c(Nc3cccc(-c4nnc(-c5ccccc5)o4)c3)n2)c1 [Cmpd 12]	36	–
CNC(=O)C1=Cc2cccc(Nc3ncc(F)c(Nc4cc(C)cc(C)c4)n3)c2C1 [Cmpd 13]	26	–
Cc1cc(Nc2ncc(F)c(N[C@@H]3CC=CC[C@H]3C(N)=O)n2)ccc1N1CCN(C)CC1 [Cmpd 14]	25	–
COc1ccc(Nc2ccnc(Nc3ccc(OC)c(-c4ccccc4)c3)n2)cc1-c1ccccc1 [Cmpd 15]	24	–
Fc1cnc(Nc2ccc3c(c2)OCCO3)nc1Nn1cccc1 [Cmpd 16]	22	–
CCCCOc1ccc(Nc2nc(Nc3ccc4c(c3)OCCO4)ncc2F)cc1 [Cmpd 17]	20	–
O=C(O)C1CCC(Nc2nc(Nc3ccc4c(c3)OCCO4)ncc2F)CC1 (stereo not shown) [Cmpd 18]	20	–
Fc1cnc(Nc2ccc3c(c2)OCCO3)nc1NC1CCCCC1 [Cmpd 19]	15	–
CC(=O)N(C)c1ccc(Nc2ncc(F)c(N3CCN(C)CC3)n2)cc1 [Cmpd 20]	14	–

SMILES	IC50 Ratio (Syk/JAK) [1]	IC50 Ratio (Syk/JAK) [2]
COc1ccc(Nc2nc(Nc3cc(Cl)c(OC)c(Cl)c3)ncc2F)cc1Cl [Cmpd 21]	14	–
CNC(=O)COc1cccc(Nc2ncc(F)c(Nc3ccc(OC)c(CN(C(=O)OC(C)(C)C)C(C)C)c3)n2)c1 [Cmpd 22]	13	–
CCN1CCN(c2ccc(Nc3ncc(F)c(NC4CC(C)(C)N(C)C(C)(C)C4)n3)cn2)CC1 [Cmpd 23]	12	–
Fc1ccc(Nc2ncc(F)c(Nc3ccc4c(c3)OCCO4)n2)cc1Cl [Cmpd 24]	12	–
COC(=O)c1ccc(Nc2ncc(F)c(Nc3ccc(OC)c(Cl)c3)n2)cc1 [Cmpd 25]	13	–
C[C@H]1Oc2ccc(Nc3nc(Nc4ccc(C(=O)NCC(=O)O)cc4)ncc3F)cc2NC1=O [Cmpd 26]	10	–
CCN(CC)CCNC(=O)c1ccc(Nc2ncc(F)c(Nc3ccc4c(c3)NC(=O)[C@H](C)O4)n2)cc1 [Cmpd 27]	–	247
Cc1cc(Nc2nc(Nc3ccc(C(N)=O)cc3)ncc2F)ccc1N1CCN(C)CC1 [Cmpd 28]	–	146
Fc1cnc(Nc2cccc(-c3ncco3)c2)nc1Nc1cc(C2CC2)n[nH]1 [Cmpd 29]	–	109
CN1CCN(c2ccc(Nc3ncc(F)c(Nc4cc(C5CC5)n[nH]4)n3)cc2Cl)CC1 [Cmpd 30]	–	85
CNC(=O)COc1cc(Nc2ncc(F)c(Nc3cccc(O)c3)n2)cc(OCC(=O)NC)c1 [Cmpd 31]	–	74
NCc1ccc(Nc2ncc(F)c(Nc3ccc(CN)cc3)n2)cc1 [Cmpd 32]	–	65
CCN(CC)CCNC(=O)c1ccc(Nc2ncc(F)c(Nc3ccc4c(c3)NC(=O)C(CCO)O4)n2)cc1 (stereo not shown) [Cmpd 33]	–	57
CCN(CC)CCNC(=O)c1ccc(Nc2ncc(F)c(Nc3ccc(OCc4nc(C)no4)cc3)n2)cc1 [Cmpd 34]	–	55
COc1cc(OC)cc(N(C)c2nc(Nc3cc(C)cc(C)c3)ncc2F)c1 [Cmpd 35]	–	44
COc1ccc(Nc2nc(Nc3ccc(N4CCN(C)CC4)c(C#N)c3)ncc2F)cc1Cl [Cmpd 36]	–	43
C[C@@H]1Oc2ccc(Nc3nc(Nc4ccc(CN)cc4)ncc3F)cc2NC1=O [Cmpd 37]	–	42
CCN(CC)CCNC(=O)c1ccc(Nc2ncc(F)c(NC3CCCC3)n2)cc1 [Cmpd 38]	–	39
O=[N+]([O-])c1cc(Nc2ccnc(Nc3ccc(Cl)c([N+](=O)[O-])c3)n2)ccc1Cl [Cmpd 62]	–	19

Continued, values first:

IC50 Ratio (Syk/JAK) [1]	IC50 Ratio (Syk/JAK) [2]	SMILES
–	59	CN1CCN(c2ccc(Nc3ncc(F)c(NC4CCC4)n3)cc2CO)CC1 [Cmpd 39]
–	32	CN1CCN(c2cccc(Nc3ncc(F)c(Nc4ccc5c(n4)NCCO5)n3)c2)CC1 [Cmpd 40]
–	32	COc1ccc(N(C)c2nc(Nc3cccc(-c4ncco4)c3)ncc2F)cc1OC [Cmpd 41]
–	32	C[C@@H]1Oc2ccc(Nc3nc(Nc4ccc(C(N)=O)cc4)ncc3F)cc2NC1=O [Cmpd 42]
–	31	COc1c(C)cc(Nc2ncc(F)c(NC3=NCCN3)n2)cc1C [Cmpd 43]
–	30	NCc1cccc(Nc2ncc(F)c(Nc3cccc(CN)c3)n2)c1 [Cmpd 44]
–	30	COc1ccc(Nc2nc(Nc3cccc(-c4ncco4)c3)ncc2F)cc1OC [Cmpd 45]
–	30	NC(=O)c1ccc(Nc2ncc(F)c(Nc3ccc(C(N)=O)cc3)n2)cc1 [Cmpd 46]
–	29	CCN(CC)CCNC(=O)c1ccc(Nc2ncc(F)c(Nc3cc(OC)cc(OC)c3)n2)cc1 [Cmpd 47]
–	28	CCN(CC)CCNC(=O)c1ccc(Nc2ncc(F)c(Nc3ccc(Cl)c(OC)c3)n2)cc1 [Cmpd 48]
–	26	Cc1cc(Nc2ncc(F)c(NC3CC(C)(C)N(C)C(C)(C)C3)n2)ccc1N1CCN(C)CC1 [Cmpd 49]
–	26	COc1ccc(Nc2nc(Nc3ccc(N4CCN(C)CC4)c(C(N)=O)c3)ncc2F)cc1Cl [Cmpd 50]
–	25	COc1ccc(Nc2ncc(F)c(Nc3ccc(OCc4nc(C)no4)cc3)n2)cc1Cl [Cmpd 51]
–	25	NCCNC(=O)c1cc2cc(Nc3ncc(F)c(Nc4ccc5oc(C(=O)NCCN)cc5c4)n3)ccc2o1 [Cmpd 52]
–	24	CNC(=O)CNC(=O)c1ccc(Nc2ncc(F)c(Nc3ccc4c(c3)C(N)CCO4)n2)cc1 (stereo not shown) [Cmpd 53]
–	24	N#Cc1ccc(Nc2ncc(F)c(Nc3ccc(C#N)cc3)n2)cc1 [Cmpd 54]

IC50 Ratio (Syk/JAK) [1]	IC50 Ratio (Syk/JAK) [2]	SMILES
–	23	CNC(=O)c1cc(Nc2ncc(F)c(Nc3ccc(OC)c(Cl)c3)n2)ccc1N1CCN(C)CC1 [Cmpd 55]
–	21	CN1CCN(C(=O)CNc2cccc(Nc3ncc(F)c(Nc4cccc(NCCO)c4)n3)c2)CC1 [Cmpd 56]
–	21	O=C1Nc2ccc(Nc3nc(Nc4cccc(-c5ncco5)c4)ncc3F)cc2OC1CCO (stereo not shown) [Cmpd 57]
–	21	CCN(CC)CCNC(=O)c1ccc(Nc2ncc(F)c(Nc3ccc(OC)c(Cl)c3)n2)cc1 [Cmpd 58]
–	21	CCN(CC)CCNC(=O)c1ccc(Nc2ncc(F)c(Nc3ccc(Cl)c(Cl)c3)n2)cc1 [Cmpd 59]
–	20	NC(=O)c1ccc(Nc2ncc(F)c(Nc3ccc4c(c3)NC(=O)C(CCO)O4)n2)cc1 (stereo not shown) [Cmpd 60]
–	20	COC(=O)c1ccc(Nc2ncc(F)c(Nc3ccc(C(=O)OC)cc3)n2)cc1 [Cmpd 61]
–	19	COc1ccc(Nc2nc(Nc3cccc(-c4nnc(C(C)(C)C)o4)c3)ncc2F)cc1OC [Cmpd 63]
–	19	CS(=O)(=O)Nc1ccc(Nc2ncc(F)c(Nc3ccc(NS(C)(=O)=O)cc3)n2)cc1 [Cmpd 64]
–	18	CCN(CC)CNC(=O)c1ccc(Nc2ncc(F)c(Nc3ccc4c(c3)C(=O)NC(=O)C4(C)C)n2)cc1 [Cmpd 65]
–	17	CNC(=O)CNC(=O)c1ccc(Nc2ncc(F)c(Nc3ccc(OC)c(Cl)c3)n2)cc1 [Cmpd 66]
–	17	COC(=O)CNC(=O)c1ccc(Nc2ncc(F)c(Nc3ccc(OCc4nc(C)no4)cc3)n2)cc1 [Cmpd 67]
–	16	CNC(=O)COc1cccc(Nc2ncc(F)c(Nc3ccc(OC)c(C(=O)OC)c3)n2)c1 [Cmpd 68]
–	16	Cc1cc(Nc2ncc(F)c(NC3C=C[C@@H](C(N)=O)C3)n2)ccc1N1CCN(C)CC1 (stereo partly shown) [Cmpd 69]
–	15	CNC(=O)CNC(=O)c1ccc(Nc2ncc(F)c(Nc3ccc4c(c3)NC(=O)C(C)(C)O4)n2)cc1 [Cmpd 70]
